Where “and” joins values, the source holds several entries; their conditions need not be identical. Equal values may be shown once. Read-outs that look alike come from different tables or passages of the source.
How the values were obtained:
[1] = Solubility in the culture medium; conditions: 25 μM
[2] = test system: cerebellar granule neurons; conditions: for % neuronal survival Mean ± SD: 24 hours, percent of HK control
Description: These compounds were analyzed for their neuroprotective activity in vitro. Granule neuron cultures were obtained from dissociated cerebella of 7-8 day old Wistar rats as known to one of ordinary skill in the art. Cells were plated in Basal Eagle's Medium with Earles salts (BME) supplemented with 10% fetal calf serum (FCS), 25 mM KCl, 2 mM glutamine (Invitrogen), and 100 μg/ml gentamycin on dishes (Nunc) coated with poly-L-lysine in 24-well dishes at a density 1×10^6 cells/well. Cytosine arabinofuranoside (10 μM) was added to the culture medium 18-22 hours after plating to prevent replication of non-neuronal cells that yields highly pure culture of granule neurons. The neuronal cultures were maintained for 7-8 days prior to treatments.
This experimental model of neuronal apoptosis has been used widely used to understand the molecular mechanisms underlying neurodegeneration and to identify biological and chemical agents with neuroprotective efficacy. For this, the cells were rinsed once and then maintained in low K^+ medium (serum-free BME medium, 5 mM KCl; referred to as LK), or in the case of control cultures, in high K^+ medium (serum-free BME medium, supplemented with 20 mM KCl; referred to as HK). Each compound was tested at three different concentrations of 1 μM, 5 μM, and 25 μM. The 25 μM concentration was included to evaluate neurotoxicity. For treatments, the chemical compounds (dissolved in dimethylsulfoxide) were added directly to LK medium at the time of the switch from HK at concentrations of 1 μM, 5 μM, or 25 μM. Viability was assessed 24 hours later. Each compound was tested in duplicate (at each of the concentrations) and the experiment repeated at least 3 times. Although all compounds were solubilized in dimethylsulfoxide (DMSO), the amount of DMSO in the cultures never exceeded 0.1% (v/v).
The viability status of neuronal cultures treated with HK, LK, or LK medium supplemented with various compounds was evaluated by phase contrast microscopy and quantified by staining cell nuclei with 4′,6′-diamidino2-phenylindole hydrochloride (DAPI). Briefly, the cells were fixed in 4% paraformaldehyde for 20 minutes at 4′C. After washing in phosphate buffered saline, DAPI (1 μg/ml in phosphate buffered saline) was added for 15 min at room-temperature and viewed under ultraviolet light (260 nm). Cells with condensed or fragmented nuclei were scored as dead. […] Statistical analysis was performed using an unpaired, two-tailed Student's t test, compared to mean neuronal survival of control cultures receiving LK treatment and the quantitative data are presented in Tables 1 and 2 for each compound.

[3] = Z/E isomer stability in DMSO-d6 by NMR; type: physicochemical; conditions: 6 hours from mixing
[4] = test system: cerebellar granule neurons; experiment: TUNEL and active caspase-3 immunoreactivity in neuronal cultures (FIG. 1); type: cell-based, Wistar rats; conditions: Compound 31 at 1 μm, compared with Compounds 7, 37 and 39, 24 hours
Excerpt: FIG. 1 is a photograph illustrating the qualitative neuroprotective effects of Compound 7 (5 μm), Compound 31 (1 μm), Compound 37 (25 μm) and Compound 39 (25 lam) are illustrated presented in the figure. From left to right columns show phase-contrast micrographs of neuronal morphology, DAPI staining of nuclei showing fragmented nuclei, TUNEL staining also showing fragmented DNA, and active caspase-3 immunoreactivity highly indicative of apoptosis. DAPI and TUNEL panels are taken from the same fields.
The TUNEL assay of neuronal cultures was performed 24 hours after treatment of the cultures using DEADEND™ Fluorometric TUNEL System from Promega (Madison, Wis.) according to the manufacturer's instructions. For immunocytochemical analysis of active caspase 3, neuronal cultures cells were fixed and treated with 0.2% Triton for 5 minutes. After blocking with PBS containing 5% BSA and 5% goat serum in PBS for 30 minutes, the coverslips were incubated with the active capase-3 primary antibody overnight at 4° C. After three washes with phosphate-buffered saline (PBS), the cells were incubated with secondary antibodies for 45 minutes at 25° C. after which the cells were washed with PBS. To visualize nuclei, cells were stained with DAPI for 15 minutes at 25° C.

[5] = LK medium, concentration not specified

## O=C1Nc2ccc(Br)cc2/C1=C\c1cc(Br)c(O)c(Br)c1 [Compound 16, (E)-5-Bromo-3-(3′,5′-dibromo-4-hydroxybenzylidene)indolin-2-one]
[1]
  solubility in the culture medium (in words): not completely soluble
[2]
  neurotoxicity (in words): not toxic
[2]; [5]
  neuroprotective activity (in words): superior to Compound 1
[2]; Table 1, 1 μM in LK medium
  % neuronal survival Mean ± SD: 88.4 ± 0.71 %
[2]; Table 1, 5 μM in LK medium
  % neuronal survival Mean ± SD: 98.7% and 98.7 ± 3.85 %
[2]; at 1 μM and 5 μM (two lower concentrations)
  neuroprotective activity (in words): highly protective
[2]; at 5 μM
  neuroprotective activity (in words): highly effective
[3]
  percent of Z configuration after 6 hours: 80%

## O=C1Nc2ccc(Cl)cc2/C1=C\c1cc(Br)c(O)c(Br)c1 [Compound 7, (E)-3-(3′,5′-Dibromo-4-hydroxybenzylidene)-5-chlorondolin-2-one]
[2]
  neurotoxicity (in words): not toxic
[2]; Table 1, 1 μM in LK medium
  % neuronal survival Mean ± SD: 84.3 ± 1.04 %
[2]; Table 1, 5 μM in LK medium
  % neuronal survival Mean ± SD: 91.9% and 91.9 ± 5.31 %
[2]; Table 1, 25 μM in LK medium
  % neuronal survival Mean ± SD: 81.8 ± 14.94 %
[2]; at 5 μM
  neuroprotective activity (in words): highly effective
[3]
  percent of Z configuration after 6 hours: 70%

## O=C1Nc2ccc(F)cc2/C1=C\c1cc(Br)cc(Br)c1 [Compound 31, (E)-3-(3′,5′-Dibromobenzylidene)-5-fluoroindolin-2-one]
[4]
  TUNEL and active caspase-3 immunoreactivity (in words): greater TUNEL and active caspase-3 immunoreactivity
[2]; [5]
  neuroprotective activity (in words): lack of neuroprotective activity
[2]; Table 1, 1 μM in LK medium
  % neuronal survival Mean ± SD: 38.4 ± 6.24%
[2]; Table 1, 5 μM in LK medium
  % neuronal survival Mean ± SD: 46.1 ± 4.00%
[2]; Table 1, 25 μM in LK medium
  % neuronal survival Mean ± SD: 48.1 ± 14.65%

## O=C1Nc2ccc([N+](=O)[O-])cc2/C1=C/c1cc(Br)c(O)c(Br)c1 [Compound 21, (Z)-3-(3′,5′-Dibromo-4-hydroxybenzylidene)-5-nitroindolin-2-one]
[2]; [5]
  neuroprotective activity (in words): superior to Compound 1
[2]; Table 1, 1 μM in LK medium
  % neuronal survival Mean ± SD: 79.9 ± 12.81%
[2]; Table 1, 5 μM in LK medium
  % neuronal survival Mean ± SD: 78.4 ± 31.66%
[2]; Table 1, 25 μM in LK medium
  % neuronal survival Mean ± SD: 71.3 ± 19.80%
[3]
  percent of Z configuration after 6 hours: 70%

## COc1ccc(/C=C2/C(=O)Nc3ccc(Br)cc32)cc1 [Compound 19, (E)-5-Bromo-3-(4′-methoxybenzylidene)indolin-2-one]
[2]; [5]
  neuroprotective activity (in words): not effective
[2]; Table 1, 1 μM in LK medium
  % neuronal survival Mean ± SD: 57.1 ± 4.51%
[2]; Table 1, 5 μM in LK medium
  % neuronal survival Mean ± SD: 59.5 ± 9.10%
[2]; Table 1, 25 μM in LK medium
  % neuronal survival Mean ± SD: 60.5 ± 9.56%

## O=C1Nc2ccccc2/C1=C\c1cc(Br)c(O)c(Br)c1 [Compound 1, (E)-3-(3′,5′-Dibromo-4′-hydroxybenzylidene)indolin-2-one]
[2]
  neurotoxicity (in words): not toxic
[2]; [5]
  neuroprotective activity (in words): moderately effective
[2]; Table 1, 1 μM in LK medium
  % neuronal survival Mean ± SD: 69.7 ± 2.19 %
[2]; Table 1, 5 μM in LK medium
  % neuronal survival Mean ± SD: 88.4 ± 11.74 %
[2]; Table 1, 25 μM in LK medium
  % neuronal survival Mean ± SD: 84.6 ± 7.57 %
[3]
  percent of Z configuration after 6 hours: 50%

## CN(C)c1ccc(/C=C2/C(=O)Nc3ccc(Br)cc32)cc1 [Compound 20, (E)-5-Bromo-3-(4′-(dimethylamino)benzylidene)indolin-2-one]
[2]; [5]
  neuroprotective activity (in words): not effective
[2]; Table 1, 1 μM in LK medium
  % neuronal survival Mean ± SD: 56.5 ± 2.28%
[2]; Table 1, 5 μM in LK medium
  % neuronal survival Mean ± SD: 54.9 ± 9.18%
[2]; Table 1, 25 μM in LK medium
  % neuronal survival Mean ± SD: 68.6 ± 9.38%

## O=C1Nc2ccccc2/C1=C\c1cc(Br)cc(Br)c1 [Compound 2, (E)-3-(3′,5′-Dibromobenzylidene)indolin-2-one]
[2]; Table 1, 1 μM in LK medium
  % neuronal survival Mean ± SD: 54.7 ± 5.32%
[2]; Table 1, 5 μM in LK medium
  % neuronal survival Mean ± SD: 45.4 ± 4.32%
[2]; Table 1, 25 μM in LK medium
  % neuronal survival Mean ± SD: 46.9 ± 12.30%
[2]; at all three concentrations
  neuroprotective activity (in words): not protective

## O=C1Nc2ccc([N+](=O)[O-])cc2/C1=C/c1cccs1 [Compound 42, (Z)-5-Nitro-3-(thien-2′-ylmethylene)indolin-2-one]
[2]; Table 2, 1 μM in LK medium
  % neuronal survival Mean ± SD: 75.1 ± 9.11 %
[2]; Table 2, 5 μM in LK medium
  % neuronal survival Mean ± SD: 67.6 ± 2.29%
[2]; Table 2, 25 μM in LK medium
  % neuronal survival Mean ± SD: 66.9 ± 10.30%

## (Z)-5-Bromo (3-(1H-pyrrol-2′-yl)methylene)indolin-2-one [Compound 37]
[2]; [5]
  neuroprotective activity (in words): one of the most potent effective neuroprotective agents discovered
[2]; Table 2, 1 μM in LK medium
  % neuronal survival Mean ± SD: 75.5 ± 14.58%
[2]; Table 2, 5 μM in LK medium
  % neuronal survival Mean ± SD: 94.2 ± 0.15 %
[2]; Table 2, 25 μM in LK medium
  % neuronal survival Mean ± SD: 93.0 ± 1.38 %

## COc1cc(/C=C2\C(=O)Nc3ccc(F)cc32)cc(OC)c1OC [Compound 32, (Z)-5-Fluoro-3-(3′, 4′,5′-trimethoxybenzylidene)indolin-2-one]
[2]; [5]
  neuroprotective activity (in words): not effective
[2]; Table 1, 1 μM in LK medium
  % neuronal survival Mean ± SD: 59.2 ± 1.77%
[2]; Table 1, 5 μM in LK medium
  % neuronal survival Mean ± SD: 51.9 ± 7.14%
[2]; Table 1, 25 μM in LK medium
  % neuronal survival Mean ± SD: 31.9 ± 1.77%

## O=C1Nc2ccc([N+](=O)[O-])cc2/C1=C\C=C\c1ccccc1 [Compound 26]
[2]; Table 1, 1 μM in LK medium
  % neuronal survival Mean ± SD: 80.1 ± 4.21 %
[2]; Table 1, 5 μM in LK medium
  % neuronal survival Mean ± SD: 78.6 ± 13.04%
[2]; Table 1, 25 μM in LK medium
  % neuronal survival Mean ± SD: 83.9 ± 9.28 %

## CC(=O)Oc1c(Br)cc(/C=C2/C(=O)Nc3ccc(Cl)cc32)cc1Br [Compound 9, (E)-2,6-Dibromo-4-(5′-chloro-2′-oxoindolin-3-ylidene)methyl)phenyl acetate]
[2]; [5]
  neuroprotective activity (in words): reduced activity
[2]; Table 1, 1 μM in LK medium
  % neuronal survival Mean ± SD: 73.0 ± 5.59 %
[2]; Table 1, 5 μM in LK medium
  % neuronal survival Mean ± SD: 84.6 ± 16.19 %
[2]; Table 1, 25 μM in LK medium
  % neuronal survival Mean ± SD: 75.2 ± 31.54%

## O=C1Nc2ccccc2/C1=C/c1ccc[nH]1 [Compound 35]
[2]; Table 2, 1 μM in LK medium
  % neuronal survival Mean ± SD: 56.0 ± 17.21%
[2]; Table 2, 5 μM in LK medium
  % neuronal survival Mean ± SD: 51.1 ± 7.06%
[2]; Table 2, 25 μM in LK medium
  % neuronal survival Mean ± SD: 3.88 ± 9.58 %

## O=C1Nc2ccccc2C1=CC=Cc1ccccc1 [Compound 4, 3-(3′-Phenylallylidene)indolin-2-one]
[2]
  neurotoxicity (in words): non-toxic
[2]; [5]
  neuroprotective activity (in words): moderately protective
[2]; Table 1, 1 μM in LK medium
  % neuronal survival Mean ± SD: 86.0 ± 2.03 %
[2]; Table 1, 5 μM in LK medium
  % neuronal survival Mean ± SD: 83.6 ± 18.88%
[2]; Table 1, 25 μM in LK medium
  % neuronal survival Mean ± SD: 81.1 ± 6.22 %
[2]; at all three concentrations
  neuroprotective activity (in words): moderately efficacious

## O=C1Nc2ccc(Br)cc2/C1=C/c1cc(Br)cc(Br)c1 [Compound 17, (Z)-5-Bromo-3-(3′,5′-dibromobenzylidene)indolin-2-one]
[2]; Table 1, 1 μM in LK medium
  % neuronal survival Mean ± SD: 54.7 ± 8.56%
[2]; Table 1, 5 μM in LK medium
  % neuronal survival Mean ± SD: 45.4 ± 3.05%
[2]; Table 1, 25 μM in LK medium
  % neuronal survival Mean ± SD: 46.9 ± 7.74%

## O=C1Nc2ccc([N+](=O)[O-])cc2/C1=C/c1cc(Br)cc(Br)c1 [Compound 22, (Z)-3-(3′,5′-Dibromobenzylidene)-5-nitroindolin-2-one]
[2]; Table 1, 1 μM in LK medium
  % neuronal survival Mean ± SD: 78.1 ± 5.82 %
[2]; Table 1, 5 μM in LK medium
  % neuronal survival Mean ± SD: 78.7 ± 15.86%
[2]; Table 1, 25 μM in LK medium
  % neuronal survival Mean ± SD: 74.5 ± 9.12%

## O=C1Nc2ccc([N+](=O)[O-])cc2/C1=C\C=Cc1ccccc1[N+](=O)[O-] [Compound 27]
[2]; Table 1, 1 μM in LK medium
  % neuronal survival Mean ± SD: 78.6 ± 6.84 %
[2]; Table 1, 5 μM in LK medium
  % neuronal survival Mean ± SD: 51.9 ± 7.50%
[2]; Table 1, 25 μM in LK medium
  % neuronal survival Mean ± SD: 78.6 ± 16.33%
